Reference: patent publication US20240116985A1, “STAPLED PEPTIDES AND METHODS THEREOF” (priority 2020, published 2024)
Read-outs that look alike come from different tables or passages of the source.

What was measured:
[1] = target: T1, full-length beta-Catenin (Uniprot ID P35222) (Homo sapiens, UniProt P35222); experiment: Fluorescence polarization IC50 (beta-catenin / 5FAM-TCF4 10-53 competition); assay type: binding; settings: fluorescence polarization; read-out: beta-Catenin FP IC50
T1 construct: 10 nM full-length beta-Catenin (Uniprot ID P35222)
T1 sequence (P35222 1-781): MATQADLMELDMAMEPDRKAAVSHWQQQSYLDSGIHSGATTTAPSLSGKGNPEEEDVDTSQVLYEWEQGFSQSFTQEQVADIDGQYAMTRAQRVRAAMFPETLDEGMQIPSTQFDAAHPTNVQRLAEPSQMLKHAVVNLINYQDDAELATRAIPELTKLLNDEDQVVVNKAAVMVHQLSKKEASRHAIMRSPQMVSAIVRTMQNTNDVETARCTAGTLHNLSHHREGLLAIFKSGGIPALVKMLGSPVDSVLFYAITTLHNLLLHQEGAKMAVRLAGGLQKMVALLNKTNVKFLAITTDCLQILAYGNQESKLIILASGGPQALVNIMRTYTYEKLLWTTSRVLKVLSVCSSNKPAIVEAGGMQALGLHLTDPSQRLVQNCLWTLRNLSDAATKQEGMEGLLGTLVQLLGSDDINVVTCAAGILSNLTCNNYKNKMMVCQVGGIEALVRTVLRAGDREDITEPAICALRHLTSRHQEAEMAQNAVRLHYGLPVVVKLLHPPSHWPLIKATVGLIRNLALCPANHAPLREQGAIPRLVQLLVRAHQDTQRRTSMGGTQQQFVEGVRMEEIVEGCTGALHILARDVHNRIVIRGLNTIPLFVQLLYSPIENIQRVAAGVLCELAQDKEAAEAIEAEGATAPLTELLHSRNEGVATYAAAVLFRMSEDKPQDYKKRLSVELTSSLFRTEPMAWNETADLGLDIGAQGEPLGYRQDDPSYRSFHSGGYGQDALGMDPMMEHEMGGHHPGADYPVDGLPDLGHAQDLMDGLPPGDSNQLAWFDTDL

[2] = target: T2, beta-catenin/TCF4 engagement (Homo sapiens, UniProt P35222); experiment: Nano-BRET target engagement assay (B-cat-Halo & TCF4-Luc in HEK293 cells); assay type: cell-based; settings: read-out: NanoBRET Abs IC50
T2 construct: expressed in transfected cells; host or cells: HEK293
T2 sequence (P35222 1-781): T1 sequence (P35222 1-781)

| SMILES | IC50 [1] [nM] | IC50 ([2]; absolute IC50) [nM] | IC50 [2] [nM] |
| --- | --- | --- | --- |
| CC[C@@H]1NC(=O)[C@H](Cc2ccccc2)NC(=O)[C@H](C)NC(=O)C(C)(C)NC(=O)[C@H](Cc2cccc(C(=O)O)c2)NC(=O)[C@H](CC(=O)O)NC(=O)C2(CCCC=CCCCOC(=O)N3CC[C@@](C(=O)N[C@@H](Cc4ccsc4)C(=O)N[C@@H](Cc4csc5ccccc45)C(=O)N[C@@H](CCC(=O)N4CCC(N5CCCCC5)CC4)C(N)=O)(C3)NC1=O)CCCC=CC[C@]1(CCCN1C(C)=O)C(=O)N[C@@H](CC(=O)O)C(=O)N[C@@H](CC(C)(C)C)C(=O)N2 (stereo partly drawn) [I-2560, Ac-PL3-Asp-Npg-B5-Asp-3COOHF-Aib-Ala-Phe-Abu-PyrS2-3Thi-BztA-[4Pippip]GlnR-NH2] | 9 | 19300 |  |
| CC[C@@H]1NC(=O)[C@H](Cc2ccccc2)NC(=O)[C@H](C)NC(=O)C(C)(C)NC(=O)[C@H](Cc2cccc(C(=O)O)c2)NC(=O)[C@H](CC(=O)O)NC(=O)C2(CCCC=CCCCOC(=O)N3CC[C@@](C(=O)N[C@@H](Cc4ccsc4)C(=O)N[C@@H](Cc4csc5ccccc45)C(=O)N[C@@H](CCC(=O)N4CCN(C(C)=O)CC4)C(N)=O)(C3)NC1=O)CCCC=CC[C@]1(CCCN1C(C)=O)C(=O)N[C@@H](CC(=O)O)C(=O)N[C@@H](CC(C)(C)C)C(=O)N2 (stereo partly drawn) [I-2561, Ac-PL3-Asp-Npg-B5-Asp-3COOHF-Aib-Ala-Phe-Abu-PyrS2-3Thi-BztA-[AcPpz]GlnR-NH2] | 5 | 7200 |  |
| CC(=O)N[C@]1(C)CC=CCCCC2(CCCC=CCCCOC(=O)N3CC[C@@](C(=O)N[C@@H](Cc4ccccc4C(F)(F)F)C(=O)N[C@@H](Cc4csc5ccccc45)C(=O)N[C@@H](CCC(N)=O)C(N)=O)(C3)NC(=O)[C@H](CC(C)C)NC(=O)[C@H](Cc3ccccc3)NC(=O)[C@H](C)NC(=O)[C@H](C)NC(=O)[C@H](Cc3cccc(C(=O)O)c3)NC(=O)[C@H](CC(=O)O)NC2=O)NC(=O)[C@H](CC(C)(C)C)NC(=O)[C@H](CC(=O)O)NC1=O (stereo partly drawn) [I-2563, Ac-R3-Asp-Npg-B5-Asp-3COOHF-Ala-Ala-Phe-Leu-PyrS2-2F3MeF-BztA-Gln-NH2] | 48 | 17000 |  |
| CC(=O)N[C@]1(C)CCCC=CCCCC2(CCCC=CCCCOC(=O)N3CC[C@@](C(=O)N[C@@H](Cc4ccccc4C(F)(F)F)C(=O)N[C@@H](Cc4csc5ccccc45)C(=O)N[C@@H](CCC(N)=O)C(N)=O)(C3)NC(=O)[C@H](CC(C)C)NC(=O)[C@H](Cc3ccccc3)NC(=O)[C@H](C)NC(=O)[C@H](C)NC(=O)[C@H](Cc3cccc(C(=O)O)c3)NC(=O)[C@H](CC(=O)O)NC2=O)NC(=O)[C@H](CC(C)(C)C)NC(=O)[C@H](CC(=O)O)NC1=O (stereo partly drawn) [I-2565, Ac-R5-Asp-Npg-B5-Asp-3COOHF-Ala-Ala-Phe-Leu-PyrS2-2F3MeF-BztA-Gln-NH2] | 90 |  | 21000 |
| CC(=O)N[C@]1(C)CCCCCCCCC2(CCCCCCCCOC(=O)N3CC[C@@](C(=O)N[C@@H](Cc4ccccc4C(F)(F)F)C(=O)N[C@@H](Cc4csc5ccccc45)C(=O)N[C@@H](CCC(N)=O)C(N)=O)(C3)NC(=O)[C@H](CC(C)C)NC(=O)[C@H](Cc3ccccc3)NC(=O)[C@H](C)NC(=O)[C@H](C)NC(=O)[C@H](Cc3cccc(C(=O)O)c3)NC(=O)[C@H](CC(=O)O)NC2=O)NC(=O)[C@H](CC(C)(C)C)NC(=O)[C@H](CC(=O)O)NC1=O (stereo partly drawn) [I-2571, Ac-R5-Asp-Npg-B5-Asp-3COOHF-Ala-Ala-Phe-Leu-PyrS2-2F3MeF-BztA-Gln-NH2] | 42 |  | 24000 |
| CC(=O)N1CCC[C@]12CC=CCCCC1(CCCC=CCCCOC(=O)N3CCC(C(=O)N[C@@H](Cc4ccccc4C(F)(F)F)C(=O)N[C@@H](Cc4csc5ccccc45)C(=O)N[C@@H](CCC(N)=O)C(N)=O)(CC3)NC(=O)[C@H](CC(C)C)NC(=O)[C@H](Cc3ccccc3)NC(=O)[C@H](C)NC(=O)[C@H](C)NC(=O)[C@H](Cc3cccc(C(=O)O)c3)NC(=O)[C@H](CC(=O)O)NC1=O)NC(=O)[C@H](CC(C)(C)C)NC(=O)[C@H](CC(=O)O)NC2=O (stereo partly drawn) [I-2581, Ac-PL3-Asp-Npg-B5-Asp-3COOHF-Ala-Ala-Phe-Leu-SPip2-2F3MeF-BztA-Gln-NH2] | 205 |  | > 20000 |
| CC(=O)N1CCC[C@]12CC=CCCCC1(CCCC=CCCCOC(=O)N3CCC(C(=O)N[C@@H](Cc4ccccc4C(F)(F)F)C(=O)N[C@@H](Cc4csc5ccccc45)C(=O)N[C@@H](CCC(N)=O)C(N)=O)(CC3)NC(=O)[C@H](CC(C)C)NC(=O)[C@H](Cc3ccccc3)NC(=O)[C@H](C)NC(=O)[C@H](C)NC(=O)[C@H](Cc3cccc(C(=O)O)c3)NC(=O)[C@H](CC(=O)O)NC1=O)NC(=O)[C@H](CC(C)(C)C)NC(=O)[C@H](CC(=O)O)NC2=O (stereo partly drawn) [I-2582, Ac-PL3-Asp-Npg-B5-Asp-3COOHF-Ala-Ala-Phe-Leu-SPip2-2F3MeF-BztA-Gln-NH2] | 263 |  | > 20000 |

Now from value to compound:

| IC50 [1] [nM] | IC50 ([2]; absolute IC50) [nM] | IC50 [2] [nM] | SMILES |
| --- | --- | --- | --- |
| 67 |  | > 20000 | CC(=O)N1CCC[C@H]1C(=O)N[C@]1(C)CCCCCCC2(CCCCCCCCOC(=O)N3CC[C@@](C(=O)N[C@@H](Cc4ccccc4C(F)(F)F)C(=O)N[C@@H](Cc4csc5ccccc45)C(=O)N[C@@H](CCC(N)=O)C(N)=O)(C3)NC(=O)[C@H](CC(C)C)NC(=O)[C@H](Cc3ccccc3)NC(=O)[C@H](C)NC(=O)[C@H](C)NC(=O)[C@H](Cc3cccc(C(=O)O)c3)NC(=O)[C@H](CC(=O)O)NC2=O)NC(=O)[C@H](CC(C)(C)C)NC(=O)[C@H](CC(=O)O)NC1=O (stereo partly drawn) [I-2572, Ac-Pro-R3-Asp-Npg-B5-Asp-3COOHF-Ala-Ala-Phe-Leu-PyrS2-2F3MeF-BztA-Gln-NH2] |
| 224 |  | > 20000 | CC(=O)N1CCC[C@]12CC=CCCCC1(CCCC=CCCCCOC(=O)N3CCC(C(=O)N[C@@H](Cc4ccccc4C(F)(F)F)C(=O)N[C@@H](Cc4csc5ccccc45)C(=O)N[C@@H](CCC(N)=O)C(N)=O)(CC3)NC(=O)[C@H](CC(C)C)NC(=O)[C@H](Cc3ccccc3)NC(=O)[C@H](C)NC(=O)[C@H](C)NC(=O)[C@H](Cc3cccc(C(=O)O)c3)NC(=O)[C@H](CC(=O)O)NC1=O)NC(=O)[C@H](CC(C)(C)C)NC(=O)[C@H](CC(=O)O)NC2=O (stereo partly drawn) [I-2583, Ac-PL3-Asp-Npg-B5-Asp-3COOHF-Ala-Ala-Phe-Leu-SPip3-2F3MeF-BztA-Gln-NH2] |
| 25 |  | 15200 | CC(=O)N1CCC[C@]12CC=CCCCC1(CCCC=CCCCOC(=O)N3CCC(C(=O)N[C@@H](Cc4ccsc4)C(=O)N[C@@H](Cc4csc5ccccc45)C(=O)N[C@@H](CCC(N)=O)C(N)=O)(CC3)NC(=O)[C@H](CC(C)C)NC(=O)[C@H](Cc3ccccc3)NC(=O)[C@H](C)NC(=O)[C@H](C)NC(=O)[C@H](Cc3cccc(C(=O)O)c3)NC(=O)[C@H](CC(=O)O)NC1=O)NC(=O)[C@H](CC(C)(C)C)NC(=O)[C@H](CC(=O)O)NC2=O (stereo partly drawn) [I-2589, Ac-PL3-Asp-Npg-B5-Asp-3COOHF-Ala-Ala-Phe-Leu-SPip2-3Thi-BztA-Gln-NH2] |
| 25 |  | 18900 | CC(=O)N1CCC[C@]12CC=CCCCC1(CCCC=CCCCCOC(=O)N3CCC(C(=O)N[C@@H](Cc4ccsc4)C(=O)N[C@@H](Cc4csc5ccccc45)C(=O)N[C@@H](CCC(N)=O)C(N)=O)(CC3)NC(=O)[C@H](CC(C)C)NC(=O)[C@H](Cc3ccccc3)NC(=O)[C@H](C)NC(=O)[C@H](C)NC(=O)[C@H](Cc3cccc(C(=O)O)c3)NC(=O)[C@H](CC(=O)O)NC1=O)NC(=O)[C@H](CC(C)(C)C)NC(=O)[C@H](CC(=O)O)NC2=O (stereo partly drawn) [I-2590, Ac-PL3-Asp-Npg-B5-Asp-3COOHF-Ala-Ala-Phe-Leu-SPip3-3Thi-BztA-Gln-NH2] |
| 37 |  | > 20000 | CC(=O)N1CCC[C@]12CC=CCCCC1(CCCC=CCCCOC(=O)N3CCC(C(=O)N[C@@H](Cc4ccsc4)C(=O)N[C@@H](Cc4csc5ccccc45)C(=O)N[C@@H](C)C(N)=O)(CC3)NC(=O)[C@H](CC(C)C)NC(=O)[C@H](Cc3ccccc3)NC(=O)[C@H](C)NC(=O)[C@H](CCC(N)=O)NC(=O)[C@H](Cc3cccc(C(=O)O)c3)NC(=O)[C@H](CC(=O)O)NC1=O)NC(=O)[C@H](CC(C)(C)C)NC(=O)[C@H](CC(=O)O)NC2=O (stereo partly drawn) [I-2592, Ac-PL3-Asp-Npg-B5-Asp-3COOHF-Gln-Ala-Phe-Leu-SPip2-3Thi-BztA-Ala-NH2] |
| 27 |  | 29400 | CC(=O)N1CCC[C@]12CC=CCCCC1(CCCC=CCCCOC(=O)N3CCC(C(=O)N[C@@H](Cc4ccsc4)C(=O)N[C@@H](Cc4csc5ccccc45)C(=O)N[C@@H](C)C(N)=O)(CC3)NC(=O)[C@H](CC(C)C)NC(=O)[C@H](Cc3ccccc3)NC(=O)[C@H](C)NC(=O)[C@H](CCC(N)=O)NC(=O)[C@H](Cc3cccc(C(=O)O)c3)NC(=O)[C@H](CC(=O)O)NC1=O)NC(=O)[C@H](CC(C)(C)C)NC(=O)[C@H](CC(=O)O)NC2=O (stereo partly drawn) [I-2593, Ac-PL3-Asp-Npg-B5-Asp-3COOHF-Gln-Ala-Phe-Leu-SPip2-3Thi-BztA-Ala-NH2] |
